Data published in patent US12240846B2 (Enliven Inc., priority 2020, dated 2025).

What was measured:
[1] = molecular target: ABL1 (T315I) (Homo sapiens, UniProt P00519, T315I); assay: Luminescence-based ABL kinase assay (300 μM ATP), ADP-Glo; type: biochemical
[2] = molecular target: T1, ABL1 (Homo sapiens, UniProt P00519); assay: as above; type: biochemical
T1 construct: purchased Carna Biosciences
Excerpt: Compounds were serially diluted in DMSO. […] Luminescence signal positively correlates with kinase activity.

[3] = system: K562 cells; assay: K562 cell proliferation assay (CellTiter-Glo); type: cell-based; details: Homo sapiens, K562 cell viability, 72 hours, read-out: Cell Line (IC50, nM) K562
Description: (§1) K562 and HL60 Cell Proliferation Assay
(§2) K562 and HL60 cells, cultured in Iscove's Modified Dulbecco's Media (IMDM) supplemented with 10% FBS, were harvested at 50-80% confluency and plated at 2,000 cells per well (K562) or 1,500 cells per well (HL60) in 384-well tissue culture plates. A subset of wells contained media only (low control, LC). […] The plates were placed in a 37° C. incubator with 5% CO2 for 72 hours. Cell viability was measured using a CellTiter-Glo luminescent cell viability assay (Promega), which allows for relative quantification of metabolically active cells by luminescence-based measurements of intracellular ATP concentrations. Briefly, plates were removed from the incubator and equilibrated for 15 minutes at room temperature prior to the addition of 40 μL of CellTiter-Glo reagent. Plates were then incubated for 30 minutes at room temperature. Luminescence was measured using an EnSpire plate reader (Perkin Elmer). As noted above, luminescence values from wells with DMSO only or media without cells were used as high and low controls (HC and LC), respectively. Normalized percent viability was calculated as follows: percent viability=100×(Lumsample−LumLC)/(LumHC−LumLC).

[4] = system: HL60 cells; assay: HL60 cell proliferation assay (CellTiter-Glo); type: cell-based; details: Homo sapiens, HL-60, HL60 cell viability, 72 hours, read-out: Cell Line (IC50, nM) HL60
Description: as §1, §2

| SMILES | IC50 [1] | IC50 [2] | IC50 [3] | IC50 [4] |
| --- | --- | --- | --- | --- |
| COc1ncc(F)c(OC)c1-c1cc2cc(NC(=O)NCCN3CCNCC3)ncc2n1C [Compound 82, 3-[2-(5-fluoro-2,4-dimethoxypyridin-3-yl)-1-methylpyrrolo[2,3-c]pyridin-5-yl]-1-[2-(piperazin-1-yl)ethyl]urea formic acid] | 88.1 nM | 31.6 nM | 125 nM | > 10000 nM |
| CCN1CCN(CCNC(=O)Nc2cc3cc(-c4c(OC)ccnc4OC)n(C)c3cn2)CC1 [Compound 83, 3-[2-(2,4-dimethoxypyridin-3-yl)-1-methylpyrrolo[2,3-c]pyridin-5-yl]-1-[2-(4-ethylpiperazin-1-yl)ethyl]urea formic acid] | 230 nM | 106 nM | 160 nM | > 10000 nM |
| COc1ncnc(OC2CC2)c1-c1cc2cc(NC(=O)[C@@H]3C[C@@H]3F)ncc2n1C [Compound 85, (1S,2S)-N-[2-(4-cyclopropoxy-6-methoxypyrimidin-5-yl)-1-methylpyrrolo[2,3-c]pyridin-5-yl]-2-fluorocyclopropane-1-carboxamide] | 147 nM | 4.33 nM | 16.5 nM | 1710 nM |
| CCN1CCN(CCNC(=O)Nc2cc3cc(-c4c(OC)cccc4OC)n(C)c3cn2)CC1 [Compound 87, 1-(2-(2,6-dimethoxyphenyl)-1-methyl-1H-pyrrolo[2,3-c]pyridin-5-yl)-3-(2-(4-ethylpiperazin-1-yl)ethyl)urea] | 76.6 nM | 35 nM | 78.5 nM | > 10000 nM |
| [2H]C([2H])([2H])Oc1ncc(F)cc1-c1cc2cc(NC(=O)[C@@H]3C[C@@H]3F)ncc2n1C([2H])([2H])[2H] [Compound 88, (1S,2S)-2-fluoro-N-(2-(5-fluoro-2-(methoxy-d3)pyridin-3-yl)-1-(methyl-d3)-1H-pyrrolo[2,3-c]pyridin-5-yl)cyclopropane-1-carboxamide] | 459 nM | 409 nM | 166 nM | 5150 nM |
| COc1nccc(F)c1-c1cc2cc(NC(=O)[C@@H]3C[C@@H]3F)ncc2n1C [Compound 89, (1S,2S)-2-fluoro-N-[2-(4-fluoro-2-methoxypyridin-3-yl)-1-methylpyrrolo[2,3-c]pyridin-5-yl]cyclopropane-1-carboxamide] | 15 nM | 76.6 nM | 153 nM | 2110 nM |
| COc1ncnc(OC)c1-c1cc2cc(NC(=O)[C@@H]3C[C@@H]3F)ncc2[nH]1 [Compound 99, (1S,2S)-N-(2-(4,6-dimethoxypyrimidin-5-yl)-1H-pyrrolo[2,3-c]pyridin-5-yl)-2-fluorocyclopropane-1-carboxamide] | > 10000 nM | 111 nM | 396 nM | > 10000 nM |
| CNc1nc(OC)c(-c2cc3cc(NC(=O)[C@@H]4C[C@@H]4F)ncc3n2C)c(OC)n1 [Compound 105, (1S,2S)-N-(2-(4,6-dimethoxy-2-(methylamino)pyrimidin-5-yl)-1-methyl-1H-pyrrolo[2,3-c]pyridin-5-yl)-2-fluorocyclopropane-1-carboxamide] | 79 nM | 71.4 nM | 60.9 nM | 199 nM |
| CCc1ncccc1-c1cc2cc(NC(=O)[C@@H]3C[C@@H]3F)ncc2n1C [Compound 112, (1S,2S)-N-[2-(2-ethylpyridin-3-yl)-1-methylpyrrolo[2,3-c]pyridin-5-yl]-2-fluorocyclopropane-1-carboxamide] | 564 nM | 1320 nM | 1780 nM | > 10000 nM |
| CCOc1nccc(C)c1-c1cc2cc(NC(=O)[C@@H]3C[C@@H]3F)ncc2n1C [Compound 114, (1S,2S)-N-[2-(2-ethoxy-4-methylpyridin-3-yl)-1-methylpyrrolo[2,3-c]pyridin-5-yl]-2-fluorocyclopropane-1-carboxamide] | 546 nM | 77 nM | 257 nM | > 10000 nM |
| Cn1c(-c2cccnc2OC2CC2)cc2cc(NC(=O)[C@@H]3C[C@@H]3F)ncc21 [Compound 115, (1S,2S)-N-[2-(2-cyclopropoxypyridin-3-yl)-1-methylpyrrolo[2,3-c]pyridin-5-yl]-2-fluorocyclopropane-1-carboxamide] | 469 nM | 18.5 nM | 80.8 nM | 1550 nM |

The next lines start with the values.

| IC50 [1] | IC50 [2] | IC50 [3] | IC50 [4] | SMILES |
| --- | --- | --- | --- | --- |
| 2930 nM | 200 nM | 700 nM | > 10000 nM | COc1ccnc(C)c1-c1cc2cc(NC(=O)[C@@H]3C[C@@H]3F)ncc2n1C [Compound 86, (1S,2S)-2-fluoro-N-(2-(4-methoxy-2-methylpyridin-3-yl)-1-methyl-1H-pyrrolo[2,3-c]pyridin-5-yl)cyclopropane-1-carboxamide] |
| 1650 nM | 494 nM | 227 nM | > 10000 nM | CCc1ncnc(OC)c1-c1cc2cc(NC(=O)[C@@H]3C[C@@H]3F)ncc2n1C [Compound 92, (1S,2S)-N-[2-(4-ethyl-6-methoxypyrimidin-5-yl)-1-methylpyrrolo[2,3-c]pyridin-5-yl]-2-fluorocyclopropane-1-carboxamide] |
| 127 nM | 57.4 nM | 79.4 nM | 9640 nM | COc1ncnc(OC)c1-c1cc2cc(NC(=O)[C@H]3C[C@H]3F)ncc2n1C [Compound 94, (1R,2R)-N-[2-(4,6-dimethoxypyrimidin-5-yl)-1-methylpyrrolo[2,3-c]pyridin-5-yl]-2-fluorocyclopropane-1-carboxamide] |
| 76.4 nM | 36.6 nM | 91.5 nM | 3320 nM | COc1ccnc(OC)c1-c1cc2cc(NC(=O)[C@H]3C[C@H]3F)ncc2n1C [Compound 97, (1R,2R)-N-[2-(2,4-dimethoxypyridin-3-yl)-1-methylpyrrolo[2,3-c]pyridin-5-yl]-2-fluorocyclopropane-1-carboxamide] |
| > 10000 nM | 1690 nM | > 10000 nM | > 10000 nM | COc1ncnc(O)c1-c1cc2cc(NC(=O)[C@@H]3C[C@@H]3F)ncc2n1C [Compound 106, (1S,2S)-2-fluoro-N-[2-(4-hydroxy-6-methoxypyrimidin-5-yl)-1-methylpyrrolo[2,3-c]pyridin-5-yl]cyclopropane-1-carboxamide] |
| 94.6 nM | 17.4 nM | 40.5 nM | 2550 nM | COc1cnnc(OC)c1-c1cc2cc(NC(=O)[C@@H]3C[C@@H]3F)ncc2n1C [Compound 107, (1S,2S)-N-[2-(3,5-dimethoxypyridazin-4-yl)-1-methylpyrrolo[2,3-c]pyridin-5-yl]-2-fluorocyclopropane-1-carboxamide] |
| 12.4 nM | 6.32 nM | 736 nM | > 10000 nM | COc1nc(O)nc(OC)c1-c1cc2cc(NC(=O)[C@@H]3C[C@@H]3F)ncc2n1C [Compound 108, (1S,2S)-2-fluoro-N-(2-(2-hydroxy-4,6-dimethoxypyrimidin-5-yl)-1-methyl-1H-pyrrolo[2,3-c]pyridin-5-yl)cyclopropane-1-carboxamide] |
| 366 nM | 84.4 nM | 314 nM | > 10000 nM | COc1ncnc(C)c1-c1cc2cc(NC(=O)[C@@H]3C[C@@H]3F)ncc2n1C [Compound 113, (1S,2S)-2-fluoro-N-[2-(4-methoxy-6-methylpyrimidin-5-yl)-1-methylpyrrolo[2,3-c]pyridin-5-yl]cyclopropane-1-carboxamide] |
